Measured values: patent US9227971B2, “Pyrazolo[1,5-a]pyrimidine compounds as mTOR inhibitors” (Merck Sharp & Dohme Corp., priority 2010, dated 2016)

What was measured:
[1] = test system: phosphorylated 4E-BP1 Thr37/46 (p4E-BP1 Thr37/46), mTORC1 activity, PC3 cells; assay: mTOR target engagement assay, immunofluorescent cell-based, p4E-BP1 Thr37/46 readout (mTORC1 activity); details: Homo sapiens, PC-3, PC3 cells; read-out: p4E-BP1 Thr37/46 IC50
In short: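 PTEN-mutant PC3 prostate cells were treated with serially diluted compound in 5% FBS F12 medium (0.25% DMSO) for ninety minutes at 37° C, glyoxal-fixed, then immunostained overnight at 4° C for p4E-BP1 Thr37/46 with an Alexa Fluor 488 secondary. IC50 came from four-parameter fits of fluorescence, DMSO-only wells defining 100%.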

[2] = test system: phosphorylated AKT Ser473 (pAKT S473), mTORC2 activity, PC3 cells; assay: mTOR target engagement assay, immunofluorescent cell-based, pAKT S473 readout (mTORC2 activity); details: Homo sapiens, PC-3, PC3 cells
In short: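 After blocking, cells were stained overnight at 4 °C with anti-pAKT S473 antibody, then a fluorescent secondary; inhibition was read as reduced fluorescence intensity.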

CC(=O)c1c([C@@H]2C[C@H]3CC[C@@H](C2)N3C(=O)c2nnc(C)[nH]2)nc2c(-c3ccc(C(N)(C(F)(F)F)C(F)(F)F)nc3)cnn2c1N [Compound 7.82, 1-(7-amino-3-(6-(2-amino-1,1,1,3,3,3-hexafluoropropan-2-yl)pyridin-3-yl)-5-((1R,3s,5S)-8-(5-methyl-4H-1,2,4-triazole-3-carbonyl)-8-azabicyclo[3.2.1]octan-3-yl)pyrazolo[1,5-a]pyrimidin-6-yl)ethanone] showed an IC50 [1] of 1 to 10 µM and an IC50 [2] of 1 to 10 µM.
In the case of CC(=O)c1c([C@@H]2C[C@H]3CC[C@@H](C2)N3C(=O)c2nnc(N)[nH]2)nc2c(-c3ccc(C(N)(C(F)(F)F)C(F)(F)F)nc3)cnn2c1N [Compound 7.83], the IC50 [1] is reported as 0.1 to 1 µM and the IC50 [2] is reported as 1 to 10 µM.
Compound CC(=O)c1c([C@@H]2C[C@H]3CC[C@@H](C2)N3C(=O)c2cc(N)n[nH]2)nc2c(-c3ccc(C(N)(C(F)(F)F)C(F)(F)F)nc3)cnn2c1N [Compound 7.84, 1-(7-amino-3-(6-(2-amino-1,1,1,3,3,3-hexafluoropropan-2-yl)pyridin-3-yl)-5-((1R,3s,5S)-8-(3-amino-1H-pyrazole-5-carbonyl)-8-azabicyclo[3.2.1]octan-3-yl)pyrazolo[1,5-a]pyrimidin-6-yl)ethanone] has an IC50 [1] of 1 to 10 µM and an IC50 [2] of 1 to 10 µM.
In the case of Nc1c(C2CC2)c([C@@H]2C[C@H]3CC[C@@H](C2)N3C(=O)c2nnc[nH]2)nc2c(-c3ccc(C(N)(C(F)(F)F)C(F)(F)F)nc3)cnn12 [Compound 7.85, ((1R,3s,5S)-3-(7-amino-3-(6-(2-amino-1,1,1,3,3,3-hexafluoropropan-2-yl)pyridin-3-yl)-6-cyclopropylpyrazolo [1,5-a]pyrimidin-5-yl)-8-azabicyclo[3.2.1]octan-8-yl)(4H-1,2,4-triazol-3-yl)methanone], the IC50 [1] is reported as 1 to 10 µM and the IC50 [2] is reported as 1 to 10 µM.
In the case of Nc1nnc(C(=O)N2[C@@H]3CC[C@H]2C[C@H](c2nc4c(-c5ccc(C(N)(C(F)(F)F)C(F)(F)F)nc5)cnn4c(N)c2C2CC2)C3)[nH]1 [Compound 7.88, ((1R,3s,5S)-3-(7-amino-3-(6-(2-amino-1,1,1,3.3,3-hexafluoropropan-2-yl)pyridin-3-yl)-6-cyclopropylpyrazolo [1,5-a]pyrimidin-5-yl)-8-azabicyclo[3.2.1]octan-8-yl)(5-amino-4H-1,2,4-triazol-3-yl)methanone], the IC50 [1] is reported as 1 to 10 µM and the IC50 [2] is reported as 1 to 10 µM.
Nc1cc([C@@H]2C[C@H]3CC[C@@H](C2)N3C(=O)c2ncn[nH]2)nc2c(-c3ccc(CO)nc3)cnn12 [Compound 7.97, ((1R,3s,5S)-3-(7-amino-3-(6-(hydroxymethyl)pyridin-3-yl)pyrazolo[1,5-a]pyrimidin-5-yl)-8-azabicyclo[3.2.1]octan-8-yl)(1H-1,2,4-triazol-5-yl)methanone] was tested, and the IC50 [1] was 1 to 10 µM and the IC50 [2] was over 10 µM.
CC(=O)c1c([C@@H]2C[C@H]3CC[C@@H](C2)N3C(=O)c2ncn[nH]2)nc2c(-c3cnc(C(C)(C)O)c(F)c3)cnn2c1N [Compound 7.98, 1-(5-((1R,3s,5S)-8-(1H-1,2,4-triazole-5-carbonyl)-8-azabicyclo[3.2.1]octan-3-yl)-7-amino-3-(5-fluoro-6-(2-hydroxypropan-2-yl)pyridin-3-yl)pyrazolo[1,5-a]pyrimidin-6-yl)ethanone] showed an IC50 [1] of 0.001 to 0.1 µM and an IC50 [2] of 0.001 to 0.1 µM.
For CC(=O)c1c(N2C3CCC2CN(C(=O)c2nnc[nH]2)C3)nc2c(-c3ccc(-c4ccccc4)nc3)cnn2c1N [Compound 8.5, 1-(5-(3-(4H-1,2,4-triazole-3-carbonyl)-3,8-diazabicyclo[3.2.1]octan-8-yl)-7-amino-3-(6-phenylpyridin-3-yl)pyrazolo[1,5-a]pyrimidin-6-yl)ethanone], the IC50 [1] was 1 to 10 µM and the IC50 [2] was 0.1 to 1 µM.
For CC(=O)c1c(N2C3CCC2CN(C(=O)[C@@H](C)O)C3)nc2c(-c3ccc(-c4ccccc4)nc3)cnn2c1N [Compound 8.6, (2R)-1-(8-(6-acetyl-7-amino-3-(6-phenylpyridin-3-yl)pyrazolo[1,5-a]pyrimidin-5-yl)-3,8-diazabicyclo[3.2.1]octan-3-yl)-2-hydroxypropan-1-one], the IC50 [1] was 1 to 10 µM and the IC50 [2] was 0.1 to 1 µM.
In the case of CC(=O)c1c(N2C3CCC2CN(C(=O)CO)C3)nc2c(-c3ccc(-c4ccccc4)nc3)cnn2c1N [Compound 8.7, 1-(8-(6-acetyl-7-amino-3-(6-phenylpyridin-3-yl)pyrazolo[1,5-a]pyrimidin-5-yl)-3,8-diazabicyclo[3.2.1]octan-3-yl)-2-hydroxyethanone], the IC50 [1] is reported as 1 to 10 µM and the IC50 [2] is reported as 0.1 to 1 µM.
In the case of CC(=O)c1c([C@@H]2C[C@H]3CC[C@@H](C2)N3C(=O)c2nnc[nH]2)nc2c(-c3ccc(N4NCCC4=O)nc3)cnn2c1N [Compound 8.19, 2-(5-(5-((1R,3s,5S)-8-(4H-1,2,4-triazole-3-carbonyl)-8-azabicyclo[3.2.1]octan-3-yl)-6-acetyl-7-aminopyrazolo[1,5-a]pyrimidin-3-yl)pyridin-2-yl)pyrazolidin-3-one], the IC50 [1] is reported as 0.1 to 1 µM and the IC50 [2] is reported as 0.1 to 1 µM.
CC(=O)c1c([C@]2(O)C[C@H]3CC[C@@H](C2)N3C(=O)c2nnc[nH]2)nc2c(-c3ccc(-c4ccccc4)nc3)cnn2c1N [Compound 8.21, 1-(7-amino-5-((1R,3r,5S)-3-hydroxy-8-(4H-1,2,4-triazole-3-carbonyl)-8-azabicyclo[3.2.1]octan-3-yl)-3-(6-phenylpyridin-3-yl)pyrazolo[1,5-a]pyrimidin-6-yl)ethanone] showed an IC50 [1] of 1 to 10 µM and an IC50 [2] of 1 to 10 µM.
Compound CS(=O)(=O)c1c([C@]2(O)C[C@H]3CC[C@@H](C2)N3C(=O)c2nnc[nH]2)nc2c(-c3ccc(-c4ccccc4)nc3)cnn2c1N [Compound 8.22, ((1R,3r,5S)-3-(7-amino-6-(methylsulfonyl)-3-(6-phenylpyridin-3-yl)pyrazolo[1,5-a]pyrimidin-5-yl)-3-hydroxy-8-azabicyclo[3.2.1]octan-8-yl)(4H-1,2,4-triazol-3-yl)methanone] has an IC50 [1] of 1 to 10 µM and an IC50 [2] of 0.1 to 1 µM.
In the case of Nc1cc([C@]2(O)C[C@H]3CC[C@@H](C2)N3C(=O)c2nnc[nH]2)nc2c(-c3ccc(-c4ccccc4)nc3)cnn12 [Compound 8.23, ((1R,3r,5S)-3-(7-amino-3-(6-phenylpyridin-3-yl)pyrazolo[1,5-a]pyrimidin-5-yl)-3-hydroxy-8-azabicyclo[3.2.1]octan-8-yl)(4H-1,2,4-triazol-3-yl)methanone], the IC50 [1] is reported as 1 to 10 µM and the IC50 [2] is reported as 1 to 10 µM.
Work on Nc1c(C2CC2)c([C@]2(O)C[C@H]3CC[C@@H](C2)N3C(=O)c2nnc[nH]2)nc2c(-c3ccc(-c4ccccc4)nc3)cnn12 [Compound 8.24, ((1R,3r,5S)-3-(7-amino-6-cyclopropyl-3-(6-phenylpyridin-3-yl)pyrazolo[1,5-a]pyrimidin-5-yl)-3-hydroxy-8-azabicyclo[3.2.1]octan-8-yl)(4H-1,2,4-triazol-3-yl)methanone] yielded an IC50 [1] of 1 to 10 µM and an IC50 [2] of 0.1 to 1 µM.
In the case of Nc1c(C2CC2)c([C@@]2(O)C[C@H]3CC[C@@H](C2)N3C(=O)c2nnc[nH]2)nc2c(-c3ccc(-c4ccccc4)nc3)cnn12 [Compound 8.25, ((1R,3s,5S)-3-(7-amino-6-cyclopropyl-3-(6-phenylpyridin-3-yl)pyrazolo[1,5-a]pyrimidin-5-yl)-3-hydroxy-8-azabicyclo[3.2.1]octan-8-yl)(4H-1,2,4-triazol-3-yl)methanone], the IC50 [1] is reported as 1 to 10 µM and the IC50 [2] is reported as 0.1 to 1 µM.
CC(=O)c1c(C2CC3COCC(C2)N3C(=O)c2nc[nH]n2)nc2c(-c3cnn(-c4ccccc4)c3)cnn2c1N (centres unmarked) [Compound 8.26, 1-(5-(9-(1H-1,2,4-triazole-3-carbonyl)-3-oxa-9-azabicyclo[3.3.1]nonan-7-yl)-7-amino-3-(1-phenyl-1H-pyrazol-4-yl)pyrazolo[1,5-a]pyrimidin-6-yl)ethanone] showed an IC50 [1] of 0.1 to 1 µM and an IC50 [2] of 0.001 to 0.1 µM.
CC(=O)c1c(C2CC3COCC(C2)N3C(=O)c2nc[nH]n2)nc2c(-c3ccc(-c4ccccc4)nc3)cnn2c1N (centres unmarked) [Compound 8.27, 1-(5-(9-(1H-1,2,4-triazole-3-carbonyl)-3-oxa-9-azabicyclo[3.3.1]nonan-7-yl)-7-amino-3-(6-phenylpyridin-3-yl)pyrazolo[1,5-a]pyrimidin-6-yl)ethanone] gave an IC50 [1] of 0.1 to 1 µM and an IC50 [2] of 0.001 to 0.1 µM.
CC(=O)c1c(C2CC3COCC(C2)N3C(=O)CO)nc2c(-c3ccc(-c4ccccc4)nc3)cnn2c1N (centres unmarked) [Compound 8.28, 1-(7-(6-acetyl-7-amino-3-(6-phenylpyridin-3-yl)pyrazolo[1,5-a]pyrimidin-5-yl)-3-oxa-9-azabicyclo[3.3.1]nonan-9-yl)-2-hydroxyethanone] gave an IC50 [1] of 0.1 to 1 µM and an IC50 [2] of 0.1 to 1 µM.
In the case of CS(=O)(=O)c1c(C2CC3COCC(C2)N3C(=O)c2nc[nH]n2)nc2c(-c3ccc(-c4ccccc4)nc3)cnn2c1N (centres unmarked) [Compound 8.29, (7-(7-amino-6-(methylsulfonyl)-3-(6-phenylpyridin-3-yl)pyrazolo[1,5-a]pyrimidin-5-yl)-3-oxa-9-azabicyclo[3.3.1]nonan-9-yl)(1H-1,2,4-triazol-3-yl)methanone], the IC50 [1] is reported as 0.001 to 0.1 µM and the IC50 [2] is reported as 0.001 to 0.1 µM.
CC(=O)c1c(C2CC3CCCC(C2)N3C(=O)c2nc[nH]n2)nc2c(-c3ccc(-c4ccccc4)nc3)cnn2c1N (centres unmarked) [Compound 8.33, 1-(5-(9-(1H-1,2,4-triazole-3-carbonyl)-9-azabicyclo[3.3.1]nonan-3-yl)-7-amino-3-(6-phenylpyridin-3-yl)pyrazolo[1,5-a]pyrimidin-6-yl)ethanone] was tested, and the IC50 [1] was 0.1 to 1 µM and the IC50 [2] was 0.1 to 1 µM.
For CC(=O)c1c([C@@H]2C[C@H]3CC(O)[C@@H](C2)N3C(=O)c2nc[nH]n2)nc2c(-c3ccc(-c4ccccc4)nc3)cnn2c1N (stereo partly drawn) [Compound 8.34, 1-(7-amino-5-((1S,3R,5R)-6-hydroxy-8-(1H-1,2,4-triazole-3-carbonyl)-8-azabicyclo[3.2.1]octan-3-yl)-3-(6-phenylpyridin-3-yl)pyrazolo[1,5-a]pyrimidin-6-yl)ethanone], the IC50 [1] was 0.001 to 0.1 µM and the IC50 [2] was 0.001 to 0.1 µM.
